The results in this text go back to patent publication US20110053897A1 (IRM LLC, priority 2009, published 2011).

pIC50: −log10 of the molar value.

The target of the first assay is T1, Syk kinase (Homo sapiens, UniProt P43405).
T1 construct: purchased
Description: Syk kinase inhibition, Caliper LabChip off-chip mobility-shift kinase assay. As to conditions: Caliper LabChip assay; read-out: Syk Enzyme IC50. The format is biochemical. How it is done: Compounds of the examples and Table 1 provided herein were assayed to measure their capacity to inhibit Syk kinase.
Compounds of the examples and Table 1 provided herein were assessed for their ability to inhibit Syk kinase by utilizing Caliper Life Sciences' proprietary LabChip™ technology. The off-chip incubation mobility-shift kinase assay uses a microfluidic chip to measure the conversion of a fluorescent peptide substrate to a phosphorylated product. The reaction mixture, from a microtiter plate well, is introduced through a capillary sipper onto the chip, where the nonphosphorylated substrate and phosphorylated product are separated by electrophoresis and detected via laser induced fluorescence. […] The phosphorylated product migrates through the chip faster than the non-phosphorylated substrate, and signals from the two forms of the peptide appear as distinct peaks. Caliper's data analysis software (HTSWA) determines peak heights, from which the ratio of product to the peak sum P/(P+S) and percent (%) conversion is calculated. This value is used to compare compound wells to control wells present on the plate, and thereby determine the % inhibition values for the compound. The formula used to calculate % inhibition is as follows, where C100% is the average % conversion of the 100% activity wells and Co% is the average % conversion of the 0% activity wells: (1−(% conversionofsample−C0%)/(C100%−C0%))*100.
Compounds (10 mM stocks in 100% DMSO) are diluted to a final concentration of 5 μM for single point inhibition experiments, and a series dilution of 10, 3, 1, 0.3, 0.1, 0.03, 0.01, 0.003, 0.001, 0.0003, 0.0001, and 0.00003 μM were made for IC50 determination. Generally, 12 μL of enzyme buffer containing purified kinase (various amount; various suppliers), 100 mM HEPES, pH 7.5, 1 mM DTT (Calbiochem, 2333153), 10 mM MgCl2 (Sigma, M-1028) or 10 mM MnCl2 (Sigma, M-1787) (assay specific), and 0.002% Brij-35 (Sigma, B4184) are added to each well. Compound and enzyme are allowed to pre-incubate for 15 minutes. 12 μL of peptide/ATP buffer containing 100 mM HEPES, pH 7.5, 1.5 μM fluorescein-labeled peptide (specific to kinase of interest), ATP (at KM apparent, Sigma, A9187), and 0.002% Brij-35 is then added to each well to initiate the reaction. The final concentration of DMSO in the well is 4%. Generally, reactions are incubated for 1 to 1.5 hours at room temperature to obtain adequate conversion of peptide to phosphorylated product in the linear range of the reaction. Reactions are terminated with the addition of 45 μL of Stop Buffer (containing 20 mM EDTA). Plates are then read on the LabChip 3000 using a 12-sipper LabChip. % conversion values and % inhibition values are obtained as provided and IC50 curves of compounds are generated using GraphPad Prism Version 4 or 5.01, or XLfit Version 4.3.2. When using GraphPad Prism, a nonlinear curve fit using the sigmoidal dose response—variable slope fit was used to graph IC50 curves and determine IC50 values and hillslopes. When using XLfit, Fit Model 205 (4-Parameter Logistic Model) is used to generate and fit the IC50 curve.
The pIC50 is the IC50 on a negative log10 scale, so that one unit is a factor of ten. On to `[2H]C(C)(O)c1cc(Nc2cc3ccn(CCO)c(=O)c3c(NC(C)(C)C)n2)ncc1F` (stereo not drawn) [compound 876], for which the pIC50 is 7.82.
Same read-out and setting: under `CC(C)(C)Nc1nc(Nc2cc(-c3ccnc(N)n3)ccn2)cc2ccn(CCO)c(=O)c12` [compound 691] stands 7.23; under `CC(C)(C)Nc1nc(Nc2cc(C(C)(C)O)c(F)cn2)cc2ccn(CC(N)=O)c(=O)c12` [compound 877], 7.03.
On to `CC(C)(C)Nc1nc(Nc2cnccn2)cc2ccn(Cc3ccccn3)c(=O)c12` [compound 1021], for which the pIC50 was 6.66.
As for `COCCOc1cc(Nc2cc3ccn(CC(O)CO)c(=O)c3c(NC(C)(C)C)n2)ncn1` (stereo not drawn) [compound 885], the negative-log IC50 (pIC50) was 7.11.
Consider `[2H]C([2H])([2H])n1ccc2cc(Nc3cc(C)c(Cl)cn3)nc(NC(C)(C)CO)c2c1=O` [compound 777], for which the pIC50 was 6.86.
Same read-out and setting: the figure for `CC(C)(C)Nc1nc(Nc2cc(CN3CCCCC3)ccn2)cc2ccn(CCO)c(=O)c12` [compound 604] is 6.60; for `CC(C)(C)Nc1nc(Nc2cc(C(C)(C)O)c(F)cn2)cc2ccn(CCO)c(=O)c12` [compound 717] it is 7.74.
Take `CC(C)(C)Nc1nc(Nc2cc(C(F)F)ccn2)cc2ccn(CCO)c(=O)c12` [compound 615]: the pIC50 is 8.05.
Same read-out and setting: under `[2H]C([2H])([2H])n1ccc2cc(Nc3cc(C)ccn3)nc(N[C@H]3CC[C@@H](CO)C3)c2c1=O` [compound 985] stands 7.39.
The same measure, in the same setting: under `CCn1ccc2cc(Nc3cc(C(C)(C)O)ccn3)nc(NC(C)(C)CO)c2c1=O` [compound 701] stands 7.16; under `O=c1[nH]ccc2cc(Nc3cnccn3)nc(N[C@H]3CC[C@@H](O)CC3)c12` [compound 981], 7.82; under `COCCCc1cc(Nc2cc3ccn(CCO)c(=O)c3c(NC(C)(C)C)n2)ncn1` [compound 622], 7.07.
Still for that read-out and setting: the figure for `CC(C)Nc1nc(Nc2cc(N3CCC(O)CC3)ccn2)cc2ccn(CCO)c(=O)c12` [compound 852] is 6.52; for `CC(C)(C)Nc1nc(Nc2cc(OCCO)ncn2)cc2ccn(C[C@H](O)CO)c(=O)c12` [compound 642] it is 7.54.
On to `CC1(Nc2nc(Nc3cnccn3)cc3ccn(CCO)c(=O)c23)CCC1` [compound 896], for which the pIC50 was 7.96.
As to `CC(C)(C)Nc1nc(Nc2cc(/C=C/CCO)ncn2)cc2ccn(CCO)c(=O)c12` [compound 627], the pIC50 is 7.22.
For `CC(C)(C)Nc1nc(Nc2cnccn2)cc2ccn(Cc3nn[nH]n3)c(=O)c12` [compound 884], the pIC50 is 7.57.
With `CC[C@H](CO)Nc1nc(Nc2cc(C)ccn2)cc2ccn(CC)c(=O)c12` [compound 598], the pIC50 was 6.29.
The same measure, in the same setting: the figure for `CCn1ccc2cc(Nc3cc(C(C)(C)O)ccn3)nc(NC3(C)CCC3)c2c1=O` [compound 702] is 7.07; for `CC1(Nc2nc(Nc3cc(C(C)(C)O)ncn3)cc3ccn(CC(O)CO)c(=O)c23)CCC1` (stereo not drawn) [compound 732] it is 7.46.
Same read-out and setting: the figure for `CCn1ccc2cc(Nc3cnccn3)nc(NCCC(F)(F)F)c2c1=O` [compound 781] is 6.52; for `CC(O)c1ccnc(Nc2cc3ccn(CCO)c(=O)c3c(NC(C)(C)C)n2)c1` (stereo not drawn) [compound 700] it is 7.92; for `CCn1ccc2cc(Nc3nccc(O)n3)nc(N[C@@H]3CC[C@@H](O)C3)c2c1=O` [compound 960] it is 7.21.
Take `CC1(Nc2nc(Nc3cnccn3)cc3cc[nH]c(=O)c23)CC1` [compound 839]: the pIC50 is 8.10.

The same assay, now with this note: read-out: Syk Enzyme IC50.
For the molecule `CC(C)C(C)Nc1nc(Nc2ccccn2)cc2cc[nH]c(=O)c12` (stereo not drawn) [compound 278], the pIC50 was 5.66.
Same read-out and setting: under `CC(CO)Nc1nc(-c2cnc(N)nc2)cc2cc[nH]c(=O)c12` (stereo not drawn) [compound 183] stands 6.69; under `CCn1ccc2cc(Nc3cnccn3)nc(N[C@H]3CCC[C@@H]3O)c2c1=O` [compound 423], 7.28; under `Cc1ccnc(Nc2cc3cc[nH]c(=O)c3c(N[C@H]3CCOC3)n2)c1` [compound 302], 7.08.
Still for that read-out and setting: the figure for `COc1cncc(-c2cc3cc[nH]c(=O)c3c(Nc3ccc(N4CC5(CNC5)C4)cc3)n2)n1` [compound 5] is 6.50.
With `[2H]C([2H])([2H])n1ccc2cc(Nc3cc(Cl)ccn3)nc(NC3CC3)c2c1=O` [compound 519], the pIC50 was 6.52.
For the molecule `CCNC(=O)CN1CCC(c2ccc(Nc3nc(-c4cncc(OC)n4)cc4cc[nH]c(=O)c34)cc2C)CC1` [compound 179], the pIC50 is 7.10.
Turning to `Cc1cc(Nc2nc(Nc3ccc(C(F)(F)F)cn3)cc3cc[nH]c(=O)c23)ccc1N1CCO[C@H](C)C1` [compound 583], the pIC50 is 5.07.
Same read-out and setting: the figure for `Cc1ccnc(Nc2cc3cc[nH]c(=O)c3c(NCCC3CCCN3C)n2)c1` (stereo not drawn) [compound 562] is 6.54.
For `CCn1ccc2cc(Nc3cc(Cl)ccn3)nc(NC(C)C)c2c1=O` [compound 305], the pIC50 was 6.59.
Still for that read-out and setting: the figure for `Cc1ccnc(Nc2cc3ccn(C)c(=O)c3c(N[C@H]3CCOC3)n2)c1` [compound 325] is 7.24.
On the same count and under the same terms, under `Cc1ccnc(Nc2cc3ccn(C)c(=O)c3c(NC(C)(C)C)n2)c1` [compound 506] stands 6.89; under `Cn1ccc2cc(Nc3cnccn3)nc(NCC3CCCO3)c2c1=O` (stereo not drawn) [compound 475], 6.86.
On the same count and under the same terms, under `Cc1nc(-c2cc3cc[nH]c(=O)c3c(Nc3ccc(N4C[C@@H](C)O[C@@H](C)C4)nc3)n2)cnc1N` [compound 19] stands 6.65; under `CCN1CCN(CCc2ccc(Nc3nc(Nc4ccc(C(F)(F)F)cn4)cc4cc[nH]c(=O)c34)cc2)CC1` [compound 556], 6.20.
For `CCn1ccc2cc(Nc3cnccn3)nc(NC[C@H]3CC[C@@](C)(O)C3)c2c1=O` [compound 417], the pIC50 is 7.02.
Still for that read-out and setting: the figure for `COc1cncc(-c2cc3cc[nH]c(=O)c3c(Nc3ccc(CCN4CCNC5(CCCC5)C4)cc3)n2)n1` [compound 22] is 7.11.
With `O=c1[nH]ccc2cc(Nc3ccccn3)nc(N[C@@H]3CCC[C@H]3O)c12` (racemic) [compound 277], the pIC50 was 6.07.
In the case of `COC[C@H](C)Nc1nc(-c2cnc(N)nc2)cc2cc[nH]c(=O)c12` [compound 448], the pIC50 was 6.90.
Turning to `CCN1CCN(CCc2ccc(Nc3nc(Nc4ccc(C#N)cn4)cc4cc[nH]c(=O)c34)cc2)CC1` [compound 564], the pIC50 was 6.41.
With `COc1cncc(-c2cc3cc[nH]c(=O)c3c(Nc3ccc(C4CCN(CCC(=O)N5CCOCC5)CC4)c(C)c3)n2)n1` [compound 162], the pIC50 was 7.49.
Turning to `COc1cncc(-c2cc3cc[nH]c(=O)c3c(Nc3ccc(CCN4CCNCC4)cc3)n2)n1` [compound 54], the pIC50 was 7.19.
On the same count and under the same terms, the figure for `Nc1ncc(-c2cc3c(F)c[nH]c(=O)c3c(Nc3ccc(N4CCOCC4)cc3)n2)cn1` [compound 428] is 6.97; for `COc1cncc(-c2cc3cc[nH]c(=O)c3c(Nc3ccc(CCC(=O)N4CCOCC4)cc3)n2)n1` [compound 25] it is 7.62.
On to `Cc1ccnc(Nc2cc3cc[nH]c(=O)c3c(NCC3CCNCC3)n2)c1` [compound 554], for which the pIC50 is 7.07.
Consider `O=c1[nH]ccc2cc(Nc3ccc(F)cn3)nc(Nc3ccc(N4CCOCC4)cc3)c12` [compound 576], for which the pIC50 is 5.31.
On the same count and under the same terms, under `CCn1ccc2cc(Nc3ncccn3)nc(NC[C@@H]3CC[C@@H](O)C3)c2c1=O` [compound 413] stands 7.34; under `O=c1[nH]ccc2cc(-c3cncnc3)nc(Nc3ccc(CCn4cncn4)cc3)c12` [compound 34], 6.74; under `CCn1ccc2cc(Nc3cc(C)ccn3)nc(NC(C)(C)CO)c2c1=O` [compound 492], 7.27.
The same measure, in the same setting: the figure for `COCCN1CCN(c2n[nH]c3cc(Nc4nc(-c5ccc(C)nc5)cc5cc[nH]c(=O)c45)ccc23)CC1` [compound 215] is 7.17; for `Cc1ccnc(Nc2cc3cc[nH]c(=O)c3c(NCc3ccccc3)n2)c1` [compound 591] it is 5.25.
On the same count and under the same terms, under `CO/N=C(\C)c1cc2cc[nH]c(=O)c2c(Nc2ccc(N3CCO[C@H](C)C3)c(C)c2)n1` [compound 234] stands 5.88.
